What was measured:
Assay type in all cases: cell-based
Bacteria = test: Biocidal effect test (MIC), bacteria; conditions: serial dilution, 10^4 cfu/ml, 48 hours at 30° C., nutrient broth, turbidity read visually, range over 8 bacterial strains; for MIC: read-out: Minimal Inhibition Concentration (ppm) Bacteria
Procedure: (§1) This test was carried out for the purpose of measuring a biocidal effect of the compounds obtained from examples 1, 3 and 4. A test material was diluted using a serial dilution method in a 96-multiwelled plate. 10^4 cfu/ml of microbes were inoculated in the diluted solution. After the microbes were cultivated for 48 hours at 30° C., MIC (Minimal Inhibition Concentration of microorganisms) was visually observed to decide whether or not microbial growth occurred from the turbidity. The growth medium was nutrient broth, DIFCO, and the strains used were as follows.
Enterobacter aerogenes ATCC 13048, Escherichia coli ATCC 11229, Micrococcus luteus ATCC 9431, Pseudomonas aeruginosa ATCC 15442, Shigella sonnei ATCC 9290, Staphylococcus epidermis ATCC 155, Staphylococcus aureus ATCC 6538 and Bacillus subtilis ATCC 6984.

Yeasts = test: Biocidal effect test (MIC), yeasts; conditions: serial dilution, 10^4 cfu/ml, 48 hours at 30° C., nutrient broth, turbidity read visually, range over 4 yeast strains; for MIC: Saccharomyces cerevisiae, read-out: Minimal Inhibition Concentration (ppm) yeasts
Procedure: as §1
Candida albicans ATCC 10231, Rhodotorula rubra ATCC 9449, Cryptococcus neoformans ATCC 34144 and Saccharomyces cerevisiae ATCC 9763.

Fungi = test: Biocidal effect test (MIC), fungi; conditions: serial dilution, 10^4 cfu/ml, 48 hours at 30° C., nutrient broth, turbidity read visually, range over 4 fungal strains; for MIC: read-out: Minimal Inhibition Concentration (ppm) fungi
Procedure: as §1
Penicillium citrinum ATCC 98404, Trichoderma viridae ATCC 1287, Rhizopus oryzae ATCC 10404 and Aspergillus niger ATCC 9642.

| SMILES | Minimal Inhibition Concentration (ppm) Bacteria (Bacteria) | Minimal Inhibition Concentration (ppm) yeasts (Yeasts) | Minimal Inhibition Concentration (ppm) fungi (Fungi) | MIC (Bacteria) [µg/mL] | MIC (Yeasts) [µg/mL] | MIC (Fungi) [µg/mL] |
| --- | --- | --- | --- | --- | --- | --- |
| CC(C)(C)CC(C)(C)c1ccc(OCCOCC[N+](C)(C)Cc2ccccc2)cc1.[Cl-] [A, N-dimethyl-N-[p-(α,α,γ,γ)-tetramethylbutylphenoxy]ethoxy ethyl-N-benzyl chloride] | 12.5˜25 ppm | 12.5˜25 ppm | 25˜100 ppm | – | – | – |
| CCCCCCCCCCCCCC[N+]1(Cc2ccccc2)CCOCC1.Cl.N.[Cl-] [B, 4-benzyl-4-tetradecyl morpholinium ammonium chloride] | – | – | – | 6.3 to 12.5 | 6.3 to 25 | 25 to 100 |
| CC(C)(C)CC(C)(C)c1ccc(OCCOCC[N+](C)(C)Cc2ccccc2)cc1.O=P([O-])(O)O [example 1, N-dimethyl-N-[p-(α,α,γ,γ)-tetramethylbutylphenoxy]ethoxy ethyl-N-benzyl ammonium phosphate] | 6.3˜12.5 ppm | 6.3˜12.5 ppm | 25˜100 ppm | – | – | – |
| CCCCCCCCCCCCCC[N+]1(Cc2ccccc2)CCOCC1.N.O=P([O-])(O)O [example 4, 4-benzyl-4-tetradecyl morpholinium ammonium phosphate] | – | – | – | 6.3 to 12.5 | 12.5 to 25 | 25 to 100 |
